Data: US10233177B2, “TRPV1 vanilloid receptor antagonists with a bicyclic portion” (Serentrix LLC, priority 2010, dated 2019)
Like-named read-outs stand apart in the source and are kept apart here.

Target: TRPV1 (Rattus norvegicus (Rat), UniProt O35433)
Assay: Ca2+ fluorescence measurements in cultured rat dorsal root ganglia neurons (capsaicin-induced calcium uptake)
Type: cell-based
Conditions: for inhibition at 0.3 µM: DRG neuron
[1] = 300 nM, rat DRG neurons, read-out: abolition of capsaicin response at 300 nM
[2] = Table 1, formula IA-C, 300 nM against calcium uptake induced by 30 nM capsaicin, rat DRG neurons, read-out: % inhibition at 300 nM
[3] = capsaicin-induced calcium uptake, rat DRG neurons, read-out: inhibition of the calcium uptake
[4] = Table 2, formula ID-E, 300 nM against calcium uptake induced by 30 nM capsaicin, rat DRG neurons, read-out: % inhibition at 300 nM
[5] = Table 3, formula IF-H, 300 nM against calcium uptake induced by 30 nM capsaicin, rat DRG neurons, read-out: % inhibition at 300 nM
[6] = Table 1, against capsaicin-evoked [Ca2+]i mobilization, rat DRG neurons, read-out: IC50
[7] = rat DRG neurons, read-out: IC50 against capsaicin-evoked [Ca2+]i mobilization

Sequence of TRPV1 (O35433 whole entry): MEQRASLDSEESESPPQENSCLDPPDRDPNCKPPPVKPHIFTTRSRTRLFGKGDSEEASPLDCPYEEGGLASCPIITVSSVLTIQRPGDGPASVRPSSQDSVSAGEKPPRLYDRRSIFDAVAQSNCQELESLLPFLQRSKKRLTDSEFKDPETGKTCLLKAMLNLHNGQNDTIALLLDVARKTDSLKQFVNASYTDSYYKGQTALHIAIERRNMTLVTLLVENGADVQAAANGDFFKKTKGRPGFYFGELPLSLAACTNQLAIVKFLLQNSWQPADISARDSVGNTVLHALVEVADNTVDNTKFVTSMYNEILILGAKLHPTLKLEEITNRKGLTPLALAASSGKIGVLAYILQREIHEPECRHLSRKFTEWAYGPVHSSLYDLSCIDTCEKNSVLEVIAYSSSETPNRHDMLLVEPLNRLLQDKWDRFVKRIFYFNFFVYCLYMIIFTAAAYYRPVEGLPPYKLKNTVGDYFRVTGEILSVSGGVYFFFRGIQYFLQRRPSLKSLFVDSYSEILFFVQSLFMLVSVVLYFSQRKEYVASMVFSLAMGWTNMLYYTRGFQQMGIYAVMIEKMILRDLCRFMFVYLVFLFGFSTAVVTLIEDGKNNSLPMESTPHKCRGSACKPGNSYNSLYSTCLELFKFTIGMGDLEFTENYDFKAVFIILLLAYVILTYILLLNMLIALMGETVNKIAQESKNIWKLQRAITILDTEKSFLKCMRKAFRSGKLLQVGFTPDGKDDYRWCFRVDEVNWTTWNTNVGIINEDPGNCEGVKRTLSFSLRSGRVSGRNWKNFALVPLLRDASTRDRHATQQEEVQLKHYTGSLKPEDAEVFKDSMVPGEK

SMILES: O=C1COc2c(cccc2NC(=O)NCc2ccc(C(F)(F)F)cc2)N1 [Example 45, 1-(4-(trifluoromethyl)benzyl)-3-(3,4-dihydro-3-oxo-2H-benzo[b][1,4]oxazin-8-yl)urea]
- inhibition at 0.3 µM [1]: ~100%
- inhibition at 0.3 µM [2]: 100%
- inhibition at 0.3 µM [3]: > 80%

SMILES: CN(C)c1cc(Cl)ccc1CNC(=O)Nc1cccc2c1OCC(=O)N2 [Example 50, 1-(4-chloro-2-(dimethylamino)benzyl)-3-(3,4-dihydro-3-oxo-2H-benzo[b][1,4]oxazin-8-yl)urea]
- inhibition at 0.3 µM [2]: 52%

SMILES: O=C1COc2c(cccc2NC(=O)NCc2ccc(Cl)cc2N2CCCCC2)N1 [Example 52, 1-(4-chloro-2-(piperidin-1-yl)benzyl)-3-(3,4-dihydro-3-oxo-2H-benzo[b][1,4]oxazin-8-yl)urea]
- inhibition at 0.3 µM [1]: ~100%
- inhibition at 0.3 µM [2]: 98%

SMILES: Cc1ccc(CNC(=O)Nc2cccc3c2OCC(=O)N3)c(N2CCCCC2)c1 [Example 53, 1-(4-methyl-2-(piperidin-1-yl)benzyl)-3-(3,4-dihydro-3-oxo-2H-benzo[b][1,4]oxazin-8-yl)urea]
- inhibition at 0.3 µM [1]: ~100%
- inhibition at 0.3 µM [2]: 90%
- inhibition at 0.3 µM [3]: > 80%

SMILES: O=C1COc2c(cccc2NC(=O)NCc2ccc(Cl)nc2)N1 [Example 54, 1-((6-chloropyridin-3-yl)methyl)-3-(3,4-dihydro-3-oxo-2H-benzo[b][1,4]oxazin-8-yl)urea]
- inhibition at 0.3 µM [2]: 55%

SMILES: O=C(Cc1ccc(C(F)(F)F)cc1)Nc1cccc2[nH]c(=O)[nH]c12 [Example 55, 2-(4-(trifluoromethyl)phenyl)-N-(2,3-dihydro-2-oxo-1H-benzo[d]imidazol-4-yl)acetamide]
- inhibition at 0.3 µM [4]: 10%

SMILES: O=C(Cc1ccc(C(F)(F)F)cc1)Nc1cccc2oc(=O)[nH]c12 [Example 56, 2-(4-(trifluoromethyl)phenyl)-N-(2,3-dihydro-2-oxobenzo[d]oxazol-4-yl)acetamide]
- inhibition at 0.3 µM [4]: 31%

SMILES: O=C(Cc1ccc(C(F)(F)F)cc1)Nc1cccc2[nH]c(=O)oc12 [Example 57, 2-(4-(trifluoromethyl)phenyl)-N-(2,3-dihydro-2-oxobenzo[d]oxazol-7-yl)acetamide]
- inhibition at 0.3 µM [4]: 7%

SMILES: O=C(Cc1ccc(C(F)(F)F)cc1)Nc1cccc2c1NC(=O)CO2 [Example 58, 2-(4-(trifluoromethyl)phenyl)-N-(3,4-dihydro-3-oxo-2H-benzo[b][1,4]oxazin-5-yl)acetamide]
- inhibition at 0.3 µM [4]: 43%

SMILES: O=C(NCc1ccc(C(F)(F)F)cc1)c1cccc2oc(=O)[nH]c12 [Example 59, N-(4-(trifluoromethyl)benzyl)-2,3-dihydro-2-oxobenzo[d]oxazole-4-carboxamide]
- inhibition at 0.3 µM [5]: 5%

SMILES: O=C(NCc1ccc(C(F)(F)F)cc1N1CCCCC1)c1cccc2oc(=O)[nH]c12 [Example 60, N-(4-(trifluoromethyl)-2-(piperidin-1-yl)benzyl)-2,3-dihydro-2-oxobenzo[d]oxazole-4-carboxamide]
- inhibition at 0.3 µM [5]: 8%

SMILES: O=C(NCc1ccc(C(F)(F)F)cc1N1CCOCC1)c1cccc2oc(=O)[nH]c12 [Example 61, N-(4-(trifluoromethyl)-2-morpholinobenzyl)-2,3-dihydro-2-oxobenzo[d]oxazole-4-carboxamide]
- inhibition at 0.3 µM [5]: 15%

SMILES: O=C1COc2cccc(C(=O)NCc3ccc(C(F)(F)F)cc3)c2N1 [Example 62, N-(4-(trifluoromethyl)benzyl)-3,4-dihydro-3-oxo-2H-benzo[b][1,4]oxazine-5-carboxamide]
- inhibition at 0.3 µM [5]: 8%

SMILES: O=C1COc2cccc(C(=O)NCc3ccc(C(F)(F)F)cc3N3CCCCC3)c2N1 [Example 63, N-(4-(trifluoromethyl)-2-(piperidin-1-yl)benzyl)-3,4-dihydro-3-oxo-2H-benzo[b][1,4]oxazine-5-carboxamide]
- inhibition at 0.3 µM [5]: 79%

SMILES: O=C1COc2c(cccc2C(=O)NCc2ccc(C(F)(F)F)cc2N2CCCCC2)N1 [Example 64, N-(4-(trifluoromethyl)-2-(piperidin-1-yl)benzyl)-3,4-dihydro-3-oxo-2H-benzo[b][1,4]oxazine-8-carboxamide]
- inhibition at 0.3 µM [5]: 65%

SMILES: O=C1COc2cccc(OC(=O)NCc3ccc(C(F)(F)F)cc3)c2N1 [Example 65, 3,4-dihydro-3-oxo-2H-benzo[b][1,4]oxazin-5-yl 4-(trifluoromethyl)benzylcarbamate]
- inhibition at 0.3 µM (read-out: % inhibition at 300 nM): 4%

SMILES: O=C(NCc1ccc(C(F)(F)F)nc1)Nc1cccc2[nH]c(=O)[nH]c12 [Example 66, 1-(2-oxo-1,3-dihydrobenzimidazol-4-yl)-3-[[6-(trifluoromethyl)-3-pyridyl]methyl]urea]
- inhibition at 0.3 µM [2]: 71%

SMILES: CC(C)Oc1cc(C(F)(F)F)ccc1CNC(=O)Nc1cccc2[nH]c(=O)[nH]c12 [Example 67, 1-[[2-isopropoxy-4-(trifluoromethyl)phenyl]methyl]-3-(2-oxo-1,3-dihydrobenzimidazol-4-yl)urea]
- inhibition at 0.3 µM [1]: ~100%
- inhibition at 0.3 µM [2]: 100%
- inhibition at 0.3 µM [3]: > 80%
- IC50 [6]: 20 nM

SMILES: CC(C)Oc1nc(C(F)(F)F)ccc1CNC(=O)Nc1cccc2[nH]c(=O)[nH]c12 [Example 68, 1-[[2-isopropoxy-6-(trifluoromethyl)-3-pyridyl]methyl]-3-(2-oxo-1,3-dihydrobenzimidazol-4-yl)urea]
- inhibition at 0.3 µM [2]: 93%
- inhibition at 0.3 µM [3]: > 80%

SMILES: CN(C)c1nc(C(F)(F)F)ccc1CNC(=O)Nc1cccc2[nH]c(=O)[nH]c12 [Example 69, 1-[[2-dimethylamino-6-(trifluoromethyl)-3-pyridyl]methyl]-3-(2-oxo-1,3-dihydrobenzimidazol-4-yl)urea]
- inhibition at 0.3 µM [2]: 80%
- inhibition at 0.3 µM [3]: > 80%
- IC50 [6]: 92 nM

SMILES: CC(C)(C)c1ccc(CNC(=O)Nc2cccc3[nH]c(=O)[nH]c23)cc1 [Example 70, 1-[(4-tert-butylphenyl)methyl]-3-(2-oxo-1,3-dihydrobenzimidazol-4-yl)urea]
- inhibition at 0.3 µM [1]: ~100%
- inhibition at 0.3 µM [2]: 98%
- inhibition at 0.3 µM [3]: > 80%

SMILES: CN(C)CCOc1nc(C(F)(F)F)ccc1CNC(=O)Nc1cccc2[nH]c(=O)[nH]c12 [Example 72, 1-[[2-(2-dimethylaminoethoxy)-6-(trifluoromethyl)-3-pyridyl]methyl]-3-(2-oxo-1,3-dihydrobenzimidazol-4-yl)urea]
- inhibition at 0.3 µM [2]: 40%
- IC50 [6]: 6 nM

SMILES: CN(C)CCOc1cc(C(F)(F)F)ccc1CNC(=O)Nc1cccc2[nH]c(=O)[nH]c12 [Example 73, 1-[[2-(2-dimethylaminoethoxy)-4-(trifluoromethyl)phenyl]methyl]-3-(2-oxo-1,3-dihydrobenzimidazol-4-yl)urea]
- inhibition at 0.3 µM [2]: 25%
- IC50 [6]: 1.8 nM
- IC50 [7]: 0.1 nM

SMILES: CC(C)(C)c1ccc(CNC(=O)Nc2cccc3[nH]c(=O)[nH]c23)c(Cl)c1 [Example 74, 1-[(4-tert-butyl-2-chloro-phenyl)methyl]-3-(2-oxo-1,3-dihydrobenzimidazol-4-yl)urea]
- inhibition at 0.3 µM [1]: ~100%
- inhibition at 0.3 µM [2]: 100%
- inhibition at 0.3 µM [3]: > 80%

SMILES: CC(C)(C)c1ccc(CNC(=O)Nc2cccc3[nH]c(=O)[nH]c23)c(N2CCCC2)c1 [Example 75, 1-[(4-tert-butyl-2-pyrrolidin-1-yl-phenyl)methyl]-3-(2-oxo-1,3-dihydrobenzimidazol-4-yl)urea]
- inhibition at 0.3 µM [1]: ~100%
- inhibition at 0.3 µM [2]: 100%
- inhibition at 0.3 µM [3]: > 80%
- IC50 [6]: 0.84 nM
- IC50 [7]: 0.84 nM
